Experimental data reported in PMC11684019, “Unveiling the Antimycobacterial Potential of Novel 4-Alkoxyquinolines: Insights into Selectivity, Mechanism of Action, and In Vivo Exposure” (Journal of Medicinal Chemistry, 2024).
Converted amounts (≈) assume the structure as drawn. “And” between values parts separate entries of the source, which are not always exact repeats. Equal entries are not always repeated. Where two headings read alike, the source gives them in different places. Marks after values point to notes of the source that are not given here.

Legend:
[1] = system: M. tuberculosis H37Rv strain; test: microbe, parasite or virus in culture; assay type: cell-based, Mycobacterium tuberculosis; conditions: M. tuberculosis H37Rv, resazurin-based assay
[2] = 10 μM, pH 7.4, 5 h, 25 °C
Vero cells [3] = conditions: read-out: CC50 Vero; Neutral Red method, 72 h
[4] = system: Escherichia coli ATCC 25922; assay type: cell-based; conditions: ATCC 25922, tested at 20 μM, 24 h
Vero cells [5] = conditions: read-out: CC50 Vero; MTT method, 72 h
[6] = system: M. tuberculosis strain PT12 (MDR clinical isolate); assay type: cell-based, Mycobacterium tuberculosis
HepG2 cells [7] = conditions: read-out: CC50 HepG2; Neutral Red method, 72 h
[8] = Aqueous solubility (UHPLC-DAD); conditions: 25 °C, 4 h
[9] = system: Klebsiella pneumoniae multidrug-resistant clinical isolate; assay type: cell-based; conditions: tested at 20 μM, 24 h
[10] = 24 h, 10 μM
Description: The assessment of chemical stability at different pH levels provides insights into the quantity or concentration of the test compound that remains unchanged and, consequently, available for absorption. […] Following this incubation period, the test compounds were quantified using HPLC-MS/MS, with alprenolol serving as the analytical control. This experiment was conducted by CEMSA (São Paulo, SP, Brazil).

[11] = system: Staphylococcus aureus ATCC 25923; assay type: cell-based; conditions: ATCC 25923, tested at 20 μM, 24 h
[12] = system: M. tuberculosis strain PT2 (MDR clinical isolate); assay type: cell-based, Mycobacterium tuberculosis
[13] = system: Acinetobacter baumannii multidrug-resistant clinical isolate; assay type: cell-based; conditions: tested at 20 μM, 24 h
[14] = system: M. tuberculosis strain PT20 (MDR clinical isolate); assay type: cell-based, Mycobacterium tuberculosis
[15] = system: M. tuberculosis H37Rv strain in murine macrophage RAW 264.7 cells; assay type: cell-based, Mycobacterium tuberculosis; conditions: for Reduction of Mtb load compared to the untreated group: 5 days
[16] = mice; for Plasma concentration: 300 mg/kg single dose gavage
HepG2 cells [17] = conditions: read-out: CC50 HepG2; MTT method, 72 h
[18] = rat liver microsomes, 2 μM, NADPH, 37 °C

CCc1ccc(NCCCOc2cc(C)nc3ccc(Br)cc23)cc1 [8t, N-(3-((6-bromo-2-methylquinolin-4-yl)oxy)propyl)-4-ethylaniline]
MIC [1]: 0.05 µM (≈ 0.02 µg/mL) | PAMPA permeability [2]: PAMPA = 0.2 × 10^−6 cm/s | CC50 (Vero cells [3]): 11.8 µM | MIC E. coli [4]: MIC E. coli = > 20 μM | CC50 (Vero cells [5]): > 20 µM | MIC PT12 [6]: <0.05 µM | CC50 (HepG2 cells [7]): > 20 µM | Solubility pH 1.2 ([8]; 0.1 M HCl solution): >2,500 μM | Solubility pH 9.1 ([8]; 0.1 M NH4HCO3 solution): 30.22 μM | Solubility pH 7.4 ([8]; PBS): 35.3 μM | MIC K. pneumoniae [9]: MIC K. pneumoniae = > 20 μM | Chemical Stability pH 1.2 (percentage of remaining compound) ([10]; 0.1 M HCl, 37 °C): Chemical Stability ^b pH 1.2 ^c = 100% | Chemical Stability pH 9.1 (percentage of remaining compound) ([10]; 0.1 M NH4HCO3, 37 °C): Chemical Stability ^b pH 9.1 ^e = 6.0% | Chemical Stability pH 7.4 (percentage of remaining compound) ([10]; PBS, 37 °C): Chemical Stability ^b pH 7.4 ^d = 5.3% | MIC S. aureus [11]: MIC S. aureus = > 20 μM | MIC PT2 [12]: <0.05 µM | MIC A. baumannii [13]: MIC A. baumannii = > 20 μM | MIC PT20 [14]: <0.05 µM | Kind of effect on intracellular growth of M. tuberculosis H37Rv [15]: bacteriostatic effect | Log10 CFU/well (Mean ± SD) [15]: 3.90 ± 0.30 ^d Log10 CFU/well and 4.10 ± 0.02 ^d Log10 CFU/well | Reduction of Mtb load compared to the untreated group ([15]; 1 μM): 1.27 log10 CFU | Reduction of Mtb load compared to the untreated group ([15]; 5 μM): 1.07 log10 CFU | Ke (elimination rate constant) ([16]; 300 mg/kg gavage): 0.16 h^–1 | Plasma concentrations for a span of up to 8 h ([16]; 300 mg/kg gavage): exceeding 7.49 μM | Tmax ([16]; 300 mg/kg gavage): 1 h | t1/2 (elimination half-life) ([16]; 300 mg/kg gavage): 4.3 ± 1.2 h | Cmax ([16]; 300 mg/kg gavage, noncompartmental analysis): 32.1 ± 3.9 µM | AUC0-t ([16]; 300 mg/kg gavage, time 0 to 8 h): 127.5 ± 5.7 µM·h | Plasma concentration ([16]; 0.5 h): 11.10 ± 1.24 µM | Plasma concentration ([16]; 0.75 h): 15.73 ± 1.61 µM | Plasma concentration ([16]; 1 h): 32.15 ± 3.94 µM | Plasma concentration ([16]; 4 h): 13.45 ± 2.01 µM | Plasma concentration ([16]; 8 h, 300 mg/kg): 9.80 µM and 9.80 ± 2.13 µM | CC50 (HepG2 cells [17]): > 20 µM | Clint (intrinsic clearance) [18]: Clint ^f = 58 mL/min/kg | t1/2 (half-life) [18]: t1/2 ^g = 7.0 min
